This passage reports CC50 and EC50 results from patent US12708641B2 (priority 2020, dated 2026).

By CC50 is commonly meant the concentration that lowers cell viability or growth by half. One may read the EC50 as the concentration giving half of the maximal effect.

Test system in one series: not listed separately
Put plainly: viability evaluation (MTS/PMS) of replicon RNA-transfected Huh7 cells, Example 2. To be noted: human, highest tested concentration 50 μM. Type of series: cell-based. The source says: Obtained values are expressed as percent inhibition of untreated RNA-transfected control condition.
For `CCOc1nc(N)nc2c1ncn2[C@@H]1O[C@](F)(CO[P@](=O)(N[C@@H](C)C(=O)OC2CCCCC2)Oc2ccccc2)[C@@H](O)[C@@]1(C)F` [Compound 1], the half-maximal cytotoxic concentration (CC50) is more than 50000 nM.
In turn, `CCOc1nc(N)nc2c1ncn2[C@@H]1O[C@](F)(COP(=O)(N[C@@H](C)C(=O)OC(C)C)Oc2ccccc2)[C@@H](O)[C@@]1(C)F` (stereo partly drawn) [Compound 4] showed a cytotoxic concentration (CC50) of more than 50000 nM.
The same measure, in the same setting: then `C=CCOP1(=O)OC[C@@]2(F)O[C@@H](n3cnc4c(OCC)nc(N)nc43)[C@](C)(F)[C@@H]2O1` (stereo partly drawn) [Compound 10], with more than 50000 nM.

Another series relates to rat HEV replicon LA-B350/luc. Put plainly: antiviral activity against rat HEV replicon LA-B350/luc in Huh7 cells (Gaussia luciferase). Type of series: cell-based. Conditions: Huh-7, 72 h, 3 days, 50% reduction in Luc signal, two experiments. (A replicon is a self-replicating genome or part of one, used to study replication in cells.)
`CCOc1nc(N)nc2c1ncn2[C@@H]1O[C@](F)(CO[P@](=O)(N[C@@H](C)C(=O)OC2CCCCC2)Oc2ccccc2)[C@@H](O)[C@@]1(C)F` [Compound 1] registered an EC50 of less than 0.64 nM.
On the same count and under the same terms, then `CCOc1nc(N)nc2c1ncn2[C@@H]1O[C@](F)(COP(=O)(N[C@@H](C)C(=O)OC2CCCCC2)Oc2ccccc2)[C@@H](O)[C@@]1(C)O` (stereo partly drawn) [Compound 2], with 8.9 nM; and `CCOc1nc(N)nc2c1ncn2[C@@H]1O[C@](F)(COP(=O)(OCOC(=O)OC(C)C)OCOC(=O)OC(C)C)[C@@H](O)[C@@]1(C)F` [Compound 3], with 9.9 nM; and `CCOc1nc(N)nc2c1ncn2[C@@H]1O[C@](F)(COP(=O)(N[C@@H](C)C(=O)OC(C)C)Oc2ccccc2)[C@@H](O)[C@@]1(C)F` (stereo partly drawn) [Compound 4], with 36 nM.
In the case of `CCOc1nc(N)nc2c1ncn2[C@@H]1O[C@](F)(COP(=O)(OCOC(=O)OC(C)C)OCOC(=O)OC(C)C)[C@@H](O)[C@@]1(C)O` [Compound 6], the concentration giving a half-maximal response (EC50) worked out at 23 nM.
Turning to `CC(C)OC(=O)[C@H](C)N[P@](=O)(OC[C@@]1(F)O[C@@H](n2ccc(=O)[nH]c2=O)[C@](C)(O)[C@@H]1O)Oc1ccccc1` [Compound 7], the concentration giving a half-maximal response (EC50) worked out at 110 nM.
With `CCOc1nc(N)nc2c1ncn2[C@@H]1O[C@]2(F)CO[P@@](=O)(N[C@H](C)C(=O)OC(C)C)O[C@H]2[C@@]1(C)F` [Compound 8], the midpoint of the response, the EC50, lay at 860 nM.
The same measure, in the same setting: then `CC(C)OC(=O)OCOP(=O)(OCOC(=O)OC(C)C)OC[C@@]1(F)O[C@@H](n2ccc(=O)[nH]c2=O)[C@](C)(O)[C@@H]1O` [Compound 9], with 4800 nM.
Compound `C=CCOP1(=O)OC[C@@]2(F)O[C@@H](n3cnc4c(OCC)nc(N)nc43)[C@](C)(F)[C@@H]2O1` (stereo partly drawn) [Compound 10] returned an EC50 of 5700 nM.
Consider `CC(C)OC(=O)OCOP(=O)(OCOC(=O)OC(C)C)OC[C@@]1(F)O[C@@H](n2ccc(=O)[nH]c2=O)[C@](C)(F)[C@@H]1O` [Compound 11], for which the EC50 turned out to be 7300 nM.

A further series concerns HEV Genotype 3 replicon Kernow-C1 p6/luc. Put plainly: antiviral activity against HEV Genotype 3 replicon Kernow-C1 p6/luc in Huh7 cells (Gaussia luciferase). Conditions: Huh-7, 96 h, 4 days, 4PL model, two experiments, read-out: relative EC50. Type of series: cell-based.
As to `CCOc1nc(N)nc2c1ncn2[C@@H]1O[C@](F)(CO[P@](=O)(N[C@@H](C)C(=O)OC2CCCCC2)Oc2ccccc2)[C@@H](O)[C@@]1(C)F` [Compound 1], the EC50 is 13 nM.
Consider `CCOc1nc(N)nc2c1ncn2[C@@H]1O[C@](F)(COP(=O)(N[C@@H](C)C(=O)OC2CCCCC2)Oc2ccccc2)[C@@H](O)[C@@]1(C)O` (stereo partly drawn) [Compound 2], for which the 50% effective concentration (EC50) stood at 11 nM.
As for `CCOc1nc(N)nc2c1ncn2[C@@H]1O[C@](F)(COP(=O)(OCOC(=O)OC(C)C)OCOC(=O)OC(C)C)[C@@H](O)[C@@]1(C)F` [Compound 3], the EC50 turned out to be 12 nM.
Consider `CCOc1nc(N)nc2c1ncn2[C@@H]1O[C@](F)(COP(=O)(N[C@@H](C)C(=O)OC(C)C)Oc2ccccc2)[C@@H](O)[C@@]1(C)F` (stereo partly drawn) [Compound 4], for which the EC50 came out at 6.5 nM.
The same measure, in the same setting: then `CCOc1nc(N)nc2c1ncn2[C@@H]1O[C@](F)(COP(=O)(OCOC(=O)OC(C)C)OCOC(=O)OC(C)C)[C@@H](O)[C@@]1(C)O` [Compound 6], with 26 nM; and `CC(C)OC(=O)[C@H](C)N[P@](=O)(OC[C@@]1(F)O[C@@H](n2ccc(=O)[nH]c2=O)[C@](C)(O)[C@@H]1O)Oc1ccccc1` [Compound 7], with 42 nM.
For the compound `CCOc1nc(N)nc2c1ncn2[C@@H]1O[C@]2(F)CO[P@@](=O)(N[C@H](C)C(=O)OC(C)C)O[C@H]2[C@@]1(C)F` [Compound 8], the EC50 worked out at 220 nM.
Same read-out and setting: then `CC(C)OC(=O)OCOP(=O)(OCOC(=O)OC(C)C)OC[C@@]1(F)O[C@@H](n2ccc(=O)[nH]c2=O)[C@](C)(O)[C@@H]1O` [Compound 9], with more than 50000 nM; and `C=CCOP1(=O)OC[C@@]2(F)O[C@@H](n3cnc4c(OCC)nc(N)nc43)[C@](C)(F)[C@@H]2O1` (stereo partly drawn) [Compound 10], with 1300 nM; and `CC(C)OC(=O)OCOP(=O)(OCOC(=O)OC(C)C)OC[C@@]1(F)O[C@@H](n2ccc(=O)[nH]c2=O)[C@](C)(F)[C@@H]1O` [Compound 11], with 720 nM.

Test system in the next series: not listed separately
Put plainly: viability evaluation (MTS/PMS) of Kernow-C1 p6/luc RNA-transfected Huh7 cells, Example 3. It counts as cell-based. To be noted: human, highest tested concentration 50 μM, read-out: relative CC50.
Procedure: For viability evaluation, medium was removed and cells were subsequently incubated with MTS/PMS solution (3-(4,5-dimethylthiazol-2-yl)-5-(3-carboxymethoxyphenyl)-2-(4-sulfophenyl)-2H-tetrazolium/phenazinemethosulfate), which is metabolized to produce a brown, water-soluble product that is quantified after 1 h at 37° C. by absorbance read-out at 498 nm. Obtained values are expressed as percentage of untreated RNA-transfected control condition.
As for `CCOc1nc(N)nc2c1ncn2[C@@H]1O[C@](F)(CO[P@](=O)(N[C@@H](C)C(=O)OC2CCCCC2)Oc2ccccc2)[C@@H](O)[C@@]1(C)F` [Compound 1], the cytotoxic concentration (CC50) was not above 50000 nM.
